Reference: patent US9744252B2, “Compounds for binding to the platelet specific glycoprotein IIb/IIIa and their use for imaging of thrombi” (PIRAMAL IMAGING SA, priority 2011, dated 2017)
Several values for one entry are separate records, joined by “and”; a condition that tells them apart may be missing. Equal entries are not always repeated. Entries after “also recorded” stand apart in the source; their conditions may differ. Where two headings read alike, the source gives them in different places.

Assays:
[1] = In vitro metabolic stability in liver microsomes, human; settings: all investigated species
Method: (§1) Human liver microsomes in suspension (protein content 0.5 mg/mL) were used for metabolic stability studies. The incubation concentration was 0.3 μM. […] After addition of 30 μL of test compound the assay was started. The compound was dissolved in an organic solvent and diluted with the same liver microsome medium in order to keep the organic content below the recommended concentration (dimethylsulfoxide DMSO <0.2% and methanol <1%). […] The samples were frozen over night at −20° C. The solutions were centrifuged for 15 min at 3000 g. The clear supernatant (100 μL) was used to determine the concentration. The analysis was performed with an Agilent 1200 HPLC system with a LCMS/MS detector.
(§2) The susceptibility of investigated compounds to degradation by phase-I oxidative metabolism was investigated using liver microsomes from different species.

[2] = male, Wistar, rat, 0.3 μM, pH 7.4
Method: as §1, §2

[3] = both, human, 0.3 μM, pH 7.4
Method: as §1, §2

[4] = female, cynomolgus monkey, 0.3 μM, pH 7.4
Method: as §1, §2

[5] = In vitro metabolic stability in liver microsomes, mouse; type: in vitro ADME; settings: NMRI, female, 0.3 μM, calculated
Method: In Vitro Metabolic Stability in Liver Microsomes
The incubation concentration was 0.3 μM. […] The samples were frozen over night at −20° C.
The recovery was almost 100% for all investigated species.

human thrombi = assay: Ex vivo blood flow model: binding to human thrombi, with cold-compound competition; settings: 3 minutes post-injection of 18F-labeled compound; ± SEM
Description: Binding to Human Thrombi:
The binding of compounds to thrombi was further investigated in an ex vivo blood flow model similar to that described in “Wakhloo, A. K. et al. Thrombus and stroke 2008, in vitro models 57-66” but modified with regard to thrombus development. Briefly, an open handmade tube-set consisting of tygon-tubes (Tygon R-1000, part No AAU00007: I.D. 3.2 mm, O.D. 6.4 mm, Saint Gobain Performance Plastics North America), intermediate tubes (Intrafix® Infusion set, B. Braun, Melsungen, Germany) an open reservoir (10 mL Combitip, Eppendorf) and a chamber made of a piece of polyethylene-Tube, ([…] Polyethylene Tubing, Clay Adams, PE160, length: 6.5 cm) containing a loop of a roughened thread (fishing line: Okuma UltraMax whitefish, diameter: 0.14 mm, length: 5 cm; sandpaper: CAMI Grit designation: 600, CP918a, VSM) was used for thrombus formation. The connection between the intermediate tube and the thrombus chamber was made by trimmed tips (epTIPS, 200 μL, Eppendorff, Hamburg/Germany). The Reservoir and the thrombus chamber were fixed by clamps and stands. A peristaltic-pump (Minipuls 3, Gilson, Middelton/USA) was used to pump the blood around thereby adjusting the flow in the middle of the thrombus chamber to 70-90 cm per second, which was monitored by ultrasound Doppler measurement (Vevo 770 High-Resolution In Vivo Micro-Imaging System, VisualSonics, Toronto/Ontario, Canada; Scanhead: RMV 704, 40 MHz). The volume of the entire tube-set was 7.5 or 15 mL.
For each experiment fresh blood was taken from a volunteer using 10 mL citrate-tubes (Sarstedt S-Monovette 02.1067.001, 10 mL, Citrate 3.13%) and immediately laid into the turning-device of an incubator at a temperature of 37° C. (Heraeus miniTherm CTT with integrated rotation- and turning device, turning speed: 19 rotations per minute, Heraeus Instruments GmbH, Hanau/Germany). As needed, two tubes were taken out of the turning-device and 15 mL were transferred to a 20 mL Syringe (Omnifix®, B. Braun, Melsungen/Germany) and gently mixed with 0.75 mL CaCl2—Solution before the peristaltic pump was started and the whole content of the syringe was transferred into the reservoir of the tube-set via a cell strainer (BD Falcon™ cell strain, 40 μm, BD, Franklin Lakes, N.J. USA). […] Then, the pump was stopped, aliquots were taken from the blood and the thrombus together with the roughened thread was removed from the thrombus-chamber before both was weighted and measured in a gamma counter (Automatic Gamma Counter Wizard^2 3, Perkin Elmer). […] Finally the activity of the compound in blood and thrombus as well as the ratio between both was determined (cpm/weight [mg]). […]

[6] = test system: arterial and venous thrombi; assay: Thrombus PET imaging and in vivo clot-to-blood ratio in cynomolgus monkeys; parameters: species or system cynomolgus monkey
Method: Thrombus-Imaging in Cynomolgus Monkeys
The ability of the compound described in example 40 for the imaging of thrombi was investigated in a PET-study with cynomolgus monkeys (female, 2.8-3.2 kg).
The first monkey was anesthetized with a mixture of Xylazin (Rompun®, Bayer HealthCare, Leverkusen, Germany), 0.12 mL/Kg and Ketamine (Ketavet®, Pfizer) 0.12 mL/Kg b.w. i.m. and additionally analgesized by an i.m. injection of 6 μg Buprenorphine per kg. While the investigation, small amounts of Ketamine have been injected i.m. if required. The left common carotid artery was exposed surgically and a polyethylene-tube ([…] Polyethylene Tubing, Clay Adams, PE50), which was roughened previously by sandpaper (600—CAMI Grit designation), was inserted into the vessel, advanced into the descending aorta and was left there for 30 minutes to allow for the development of a thrombus on the rough surface of the tube. Meanwhile, the monkey was placed inside the PET-scanner (Inveon PET/CT, Siemens Medical, Erlangen). […] The thickness of this layer was far below 1 mm (see also removed thrombus of Monkey 2, FIG. 7) and therewith also far below the resolution of the image, which is approximately 1 mm. This also means, that even slightest thrombi, even if their size is far less than the resolution of the imaging-device, can be visualized due to the massive accumulation of compound on the platelets of the thrombi.
At the end of the experiment the tube was removed carefully from the vessel before it was weighted and measured in a gamma counter (Automatic Gamma Counter Wizard^2 3, Perkin Elmer). […] Finally the activity of the compound in blood and thrombus as well as the ratio between the two was determined (cpm/weight [mg]). […]
The in vivo clot-to-blood ratio was determined from 5 thrombi out of the above described monkey experiments. As already mentioned above the thrombi had been removed from the vessels after imaging and had been weighted and measured in a gamma-counter (Automatic Gamma Counter Wizard^2 3, Perkin Elmer) together with blood samples taken from the animal. After incubation of the thrombi in Plasmin (Plasmin from Human Plasma, Sigma Aldrich, Plasmin-stock-solution: 500 μg Plasmin in 500 μL Tris-buffer (150 μM, pH 7.8), 20 μL Plasmin-stock-solution to 230 μL saline solution 0.9%) and removal of the thrombi from the catheter tubes, the netto weight of the thrombi was calculated and the concentration of the compound in thrombus (clot) and blood, as well as the ratio between the two was calculated.

[7] = Blood clearance in a cynomolgus monkey (PET and gamma counter); type: in vivo; settings: 25 MBq i.v., PET
Method: FIG. 4: Blood kinetics of the compound described in example 40 in cynomolgus monkey.
PET-imaging was performed continuously from shortly before up to 60 minutes post injection. Venous blood samples were taken at 3, 10, 30 and 60 minutes p.i. and were measured in a gamma-counter (Automatic Gamma Counter Wizard^2 3, Perkin Elmer) and expressed as cpm/mg blood. Additionally, the blood-concentration of the compound was measured from the PET-Image over the whole imaging period and expressed as % ID/g.
Blood Clearance in a Cynomolgus Monkey
The blood clearance of the compound described in example 40 has been determined in a cynomolgus monkey. A female cynomolgus monkey was anesthetized with a mixture of Xylazin (Rompun®, Bayer HealthCare, Leverkusen, Germany), 0.12 mL/kg bodyweight and Ketamine (Ketavet®, Pfizer) 0.12 mL/kg bodyweight i.m. The monkey was placed inside the PET-scanner (Inveon PET/CT, Siemens Medical, Erlangen) and 25 MBq of the compound has been injected i.v. while PET-imaging was performed continuously from shortly before up to 60 minutes post injection. Venous blood samples were taken at 3, 10, 30 and 60 minutes p.i. and were measured in a gamma-counter (Automatic Gamma Counter Wizard^2 3, Perkin Elmer). Additionally, the blood-concentration of the compound was measured from the PET-Image over the whole imaging period (FIG. 4).

[8] = Pharmacokinetics / biodistribution in mice; type: in vivo; settings: nude mice, 185 KBq
Method: FIG. 3: Biodistribution of the compound described in example 41 in mice.
The biodistribution of the compound described in example 41 was determined in nude mice. Briefly, the mice received 185 KBq of the compound each. At different time points (1, 3, 10, 30, 120 minutes p.i., 3 mice per group) the animals were sacrificed and the organs of interest or aliquots thereof were removed, weighted and finally measured in a gamma counter (Automatic Gamma Counter Wizard^2 3, Perkin Elmer).

SMILES: O=C(O)C[C@H](NC(=O)[C@@H]1CCCN(C(=O)CCC2CCNCC2)C1)c1cncc(OCCF)c1 [Compound 3]
- recovery [1]: ~100%

SMILES: O=C(O)C[C@H](NC(=O)[C@@H]1CCCN(C(=O)CCC2CCNCC2)C1)c1cncc(OCCF)c1 [Example 3, (3S)-3-[5-(2-Fluoroethoxy)pyridin-3-yl]-3-[({(3R)-1-[3-(piperidin-4-yl)propanoyl]-piperidin-3-yl}carbonyl)amino]propanoic acid]
- CLblood [2]: 2.4 mL/day/kg
- CLblood [3]: 2.4 mL/day/kg
- CLblood [4]: 2.4 mL/day/kg
- CLblood [5]: 2.4 mL/day/kg

SMILES: O=C(O)C[C@H](NC(=O)[C@@H]1CCCN(C(=O)CCC2CCNCC2)C1)c1cccc(OCC[18F])c1 [Example 38, (3S)-3-[3-(2-[^18F]Fluoroethoxy)phenyl]-3-[({(3R)-1-[3-(piperidin-4-yl)propanoyl]piperidin-3-yl}carbonyl)amino]propanoic acid]
- Accumulation Thrombus [10^3 cpm/mg] (human thrombi): 41 ± 3 (n = 5) 10^3 cpm/mg

SMILES: O=C(O)C[C@H](NC(=O)[C@@H]1CCCN(C(=O)CCC2CCNCC2)C1)c1ccc(OCC[18F])cc1 [Example 39, (3S)-3-[4-(2-[^18F]Fluoroethoxy)phenyl]-3-[({(3R)-1-[3-(piperidin-4-yl)propanoyl]piperidin-3-yl}carbonyl)amino]propanoic acid]
- Accumulation Thrombus [10^3 cpm/mg] (human thrombi): 86 ± 9 (n = 6) 10^3 cpm/mg

SMILES: O=C(O)C[C@H](NC(=O)[C@@H]1CCCN(C(=O)CCC2CCNCC2)C1)c1cncc(OCC[18F])c1 [Example 40, (3S)-3-[5-(2-[^18F]Fluoroethoxy)pyridin-3-yl]-3-[({(3R)-1-[3-(piperidin-4-yl)propanoyl]piperidin-3-yl}carbonyl)amino]propanoic acid]
- Blood [cpm/mg] ([6]; blood samples after imaging, Cynomolgus monkey): 90 cpm/mg and 130 cpm/mg and 100 cpm/mg
- PET signal / accumulation in thrombi ([6]; cynomolgus monkeys, 25 MBq or 15 MBq i.v., up to 60 minutes p.i.): bright signal inside the descending aorta alongside the roughened part of the tube; also recorded: all arterial and venous thrombi showed a bright signal; also recorded: surprisingly high accumulation even in slightest venous and arterial thrombi
- retention within the thrombus ([6]; cynomolgus monkeys, 60 minutes shown): almost completely remains within the thrombus over a long time
- background in surrounding tissue or organ ([6]; cynomolgus monkeys, PET): almost no background in any surrounding tissue or organ
- contrast in the brain [7]: completely free of contrast
- signal in other tissue [7]: only marginal signal visible in any other tissue

SMILES: O=C(O)C[C@H](NC(=O)[C@@H]1CCCN(C(=O)CCC2CCNCC2)C1)c1cncc(-c2ccc(OCC[18F])cc2)c1 [Example 41, (3S)-3-{5-[4-(2-[^18F]Fluoroethoxy)phenyl]pyridin-3-yl}-3-[({(3R)-1-[3-(piperidin-4-yl)propanoyl]piperidin-3-yl}carbonyl)amino]propanoic acid]
- Accumulation Thrombus [10^3 cpm/mg] (human thrombi): 44 ± 7 (n = 6) 10^3 cpm/mg
- elimination from the blood [8]: rapidly eliminated from the blood
- enhancement in the vessel-wall [8]: no enhancement in the vessel-wall
- excretion [8]: quickly excreted over the kidney and liver

SMILES: N#Cc1cc(-c2cncc([C@H](CC(=O)O)NC(=O)[C@@H]3CCCN(C(=O)CCC4CCNCC4)C3)c2)ccc1[18F] [Example 42, (3S)-3-[5-(3-Cyano-4-[^18F]fluorophenyl)pyridin-3-yl]-3-[({(3R)-1-[3-(piperidin-4-yl)propanoyl]piperidin-3-yl}carbonyl)amino]propanoic acid]
- Accumulation Thrombus [10^3 cpm/mg] (human thrombi): 39 ± 5 (n = 6) 10^3 cpm/mg
